The values that follow come from patent US20030170643A1, “Regulation of apoB treatment and drug screening for cardiovascular and metabolic disorders or syndromes” (priority 1999, published 2003).

What all share (assay type): cell-based
Experiment [1] deals with rat hepatoma cells. As to the kind of experiment: TBARS assay of ROS in cell lysates of rat hepatoma cells. The note with it: fatty acid alone. How it is done:
FIG. 13 illustrates that either an iron chelator (DFX) or lipid antioxidants block DHA-stimulated apoB degradation and reactive oxygen species (ROS) production. Rat hepatoma cells were plated in culture wells and pre-incubated in media containing either DHA or DHA with one of the indicated compounds. Radiolabeled methionine/cysteine was added to the culture media for 15 minutes, after which time, the culture media were replaced by fresh media identical in composition except that radiolabeled methionine/cysteine were replaced by unlabeled methionone/cysteine. The recovery of labeled apoB100 ([^35S]-apoB100) from the media and cell lysate was determined at the indicated time points (with time 0 being the point when the fresh media were applied to the cells) by immunoprecipitating apoB species with a rabbit polyclonal antibody to rat apoB, resuspending the immunoprecipitates, combining aliquots from cell lysate and media samples from each well, resolving the protein contents of the combined immunoprecipitates by SDS-polyacrylamide gel electrophoresis (SDS-PAGE), and exposing the resultant gels to X-ray film in order to visualize the labeled apoB bands. In panel A are shown representative signals for radiolabeled apoB100 in each of the treatment conditions. […] For each treatment, there were at least 2 wells/treatment for each time point and the entire experiment repeated. The signal intensities of the apoB100 bands were quantified by densitometry and the mean relative recoveries (the % of the 15 minute, or initial, value still remaining at 120 minutes) ±SEM are shown in panel B. Note that the visual impressions observable in panel A are confirmed by the quantitative analysis; i.e., there is a substantial increase in labeled apoB100 recovery with any of the co-treatments. In panel C, the ROS content of the cell lysates at the end of the experiment was measured by the standard TBARS assay (Stocks et al., 1974, Clin Sci Mol Med 47,215-222). Note that compared to control (BSA), DHA induced a large increase in TBARS, as expected because of its high content on unsaturated bonds. […] FIG. 15 illustrates that AA stimulates apoB100 degradation and increases ROS. […] Note in the upper panel that the combined recovery (from two separate wells/time point) of radiolabeled apoB100 decreased from 15 to 120 minutes, indicating significant apoB100 degradation had occurred in the presence of AA. […] In addition to being a source of ROS, AA can also be converted by cyclooxygenase (COX) to bioactive prostaglandin compounds. We therefore repeated the experiment with AA but with co-treatment by the COX inhibitor aspirin.

The test system of experiment [2] is rat hepatoma cells. As to the kind of experiment: Pulse-chase recovery of [35S]-apoB100 (apoB100 degradation) in rat hepatoma cells. As to conditions: for effect on DHA-stimulated apoB100 degradation: rat hepatoma cells or primary hepatocytes, co-treatment with DHA/BSA. How it is done: FIG. 13 illustrates that either an iron chelator (DFX) or lipid antioxidants block DHA-stimulated apoB degradation and reactive oxygen species (ROS) production. Rat hepatoma cells were plated in culture wells and pre-incubated in media containing either DHA or DHA with one of the indicated compounds. Radiolabeled methionine/cysteine was added to the culture media for 15 minutes, after which time, the culture media were replaced by fresh media identical in composition except that radiolabeled methionine/cysteine were replaced by unlabeled methionone/cysteine. The recovery of labeled apoB100 ([^35S]-apoB100) from the media and cell lysate was determined at the indicated time points (with time 0 being the point when the fresh media were applied to the cells) by immunoprecipitating apoB species with a rabbit polyclonal antibody to rat apoB, resuspending the immunoprecipitates, combining aliquots from cell lysate and media samples from each well, resolving the protein contents of the combined immunoprecipitates by SDS-polyacrylamide gel electrophoresis (SDS-PAGE), and exposing the resultant gels to X-ray film in order to visualize the labeled apoB bands. In panel A are shown representative signals for radiolabeled apoB100 in each of the treatment conditions. […] For each treatment, there were at least 2 wells/treatment for each time point and the entire experiment repeated. The signal intensities of the apoB100 bands were quantified by densitometry and the mean relative recoveries (the % of the 15 minute, or initial, value still remaining at 120 minutes) ±SEM are shown in panel B. Note that the visual impressions observable in panel A are confirmed by the quantitative analysis; i.e., there is a substantial increase in labeled apoB100 recovery with any of the co-treatments. In panel C, the ROS content of the cell lysates at the end of the experiment was measured by the standard TBARS assay (Stocks et al., 1974, Clin Sci Mol Med 47,215-222). Note that compared to control (BSA), DHA induced a large increase in TBARS, as expected because of its high content on unsaturated bonds.
FIG. 14 illustrates that DHA, but not saturated MA, induces apoB100 degradation in rat hepatoma cells. An experiment similar to the one described in FIG. 13 was performed, with the following changes: A) The immunoprecipitates from cell lysate and media samples were not combined, but separately analyzed. B) In addition to the 15 and 120 minute time points, apoB recovery was determined at 30 minutes. C) In addition to DHA, the effects of the fatty acid myristic (MA) were also tested because it has no unsaturated bonds and should not give rise to ROS.
FIG. 15 illustrates that AA stimulates apoB100 degradation and increases ROS. […] Note in the upper panel that the combined recovery (from two separate wells/time point) of radiolabeled apoB100 decreased from 15 to 120 minutes, indicating significant apoB100 degradation had occurred in the presence of AA. […] In addition to being a source of ROS, AA can also be converted by cyclooxygenase (COX) to bioactive prostaglandin compounds. We therefore repeated the experiment with AA but with co-treatment by the COX inhibitor aspirin.
To further explore the underlying mechanisms, rat hepatoma cells or primary hepatocytes were incubated with the Ω-3 fatty acid DHA complexed to BSA, while blocking candidate cellular mediators. […] There was, however, strong evidence against a role for calcium. Chelation of intracellular Ca^++ with BAPTA-AM, pharmacologic blockage of Ca^++ channels, depletion of the ER-calcium pool, and increasing Ca++ influx with an ionophore each had no effect. Because EGTA also chelates Fe^+++, and DHA is subject to Fe^+++-dependent peroxidation, the role of this lipid modification was examined. As shown in FIG. 13A and 13B, Desferroxamine (DFX), a chelator of Fe^+++, the antioxidant vitamin E (Vit E), and the synthetic antioxidant BHT, each inhibited DHA-stimulated apoB100 degradation by ˜60%.

A further experiment relates to rat primary hepatocytes. As to the kind of experiment: Secretion of newly synthesized ([35S]methionine-labeled) VLDL-apoproteins by rat primary hepatocytes incubated with fatty acid/BSA complexes. As to conditions: fatty acid/BSA complexes (0.8 mM FA), VLDL fraction. On the procedure: Cells were plated at a density of 2×10^6 cells/ml on 60-mm culture dishes (previously coated with poly-D-lysine) in modified M199 medium (M199, 1% fetal bovine serum [FBS], 1 mM nicotinamide, 0.1 nM insulin, 3 mg/ml choline, 1.1% L-glutamine, 1% BSA). After a four-hour attachment period, the medium was changed (modified M199 identical to the above except BSA was omitted and the concentration of FBS was raised to 10%). The next morning, cells were washed in serum-free medium three times, the experimental media added, and the cells incubated at 37° C. for 4-6 hours. The experimental medium consisted of serum-free RPMI containing the appropriate isotopes (see below) and fatty acids (FA) present at a final concentration of 0.8 mM complexed to BSA (FA:BSA molar ratio=5:1). The fatty acids used were oleic (OA), EPA, and DHA. Control medium was identical, except that BSA (0.16 mM) without fatty acids was present. For metabolic labeling of proteins, [^35S]methionine (70 uCi/ml) was included in the experimental media.
Following the 4-6 hour incubation period, the cell monolayer was washed, then solubilized in 0.1 M NaOH, and the cell protein determined by the Lowry method (Lowry, O. H., Rosebrough, N. J., Farr, A. L., and Randall, R. J. (1951) J Biol Chem 193, 265-75). Each 60 mm dish contained approximately 1-1.5 mg of cell protein. The secreted apoproteins were isolated from the medium either by ultracentrifugation or immunoprecipitation. To isolate the d<1.006 (VLDL) and 1.006<d<1.063 (IDL and LDL) g/ml density classes by centrifugation, sequential 20 hour runs at 48,000 rpm in a 50 Ti Beckman rotor at 4° C. were performed. After the first run at d=1.006, the upper VLDL layer was harvested and the density of the infranatant adjusted to 1.066 g/ml with solid KBr. After being overlaid with a KBr solution of density 1.063, the adjusted infranatant was re-centrifuged as before to isolate the IDL and LDL fractions. In some experiments, the HDL fraction (1.063<d<1.21) was isolated by sequential density centrifugation. Lipoprotein fractions were then dialyzed against 0.9% NaCl containing 10 mM unlabeled methionine, 0.2 mM PMSF, and 2 mM EDTA. Dialyzed lipoproteins were delipidated using 9 volumes of 100% isopropanol. Apoproteins were then collected by centrifugation in a Sorval HB-4 rotor at 10,000 rpm and 4° C. for 20 min, and dissolved in buffer (0.01 M phosphate, pH 7,1 % SDS, 10% glycerol), in preparation for electrophoresis.
To immunoprecipitate apoB or apoE from unfractionated conditioned medium, monospecific rabbit antiserum to rat apoB or apoE was used. Briefly, an aliquot of the medium was mixed with an equal volume of diluted antiserum (1:100 in PBS and 1% BSA) and incubated overnight at 4° C. Staph A was added in the form of immunoprecipitin, and the resultant precipitate containing the immune complexes was washed extensively, the staph A cells removed, and the isolated apoprotein dissolved in gel sample buffer (0.0625M tris/Cl, pH 6.8, 20% glycerol, 2% SDS). Electrophoretic separation of apoVLDL, apoIDL/LDL, and immunoprecipitates was accomplished using 3.5% acrylamide-18% glycerol gels as described (Maguire, G. F., Lee, M., and Connelly, P. W. (1989) J Lipid Res 30, 757-61). An aliquot of each sample was taken for scintillation counting, so that total radioactivity applied to each lane could be determined. Also, protein size standards were included in each gel.
After electrophoresis, the gels were stained, fixed, soaked in Enhance fluor solution, and dried following protocols supplied by the manufacturer. Dried gels were then exposed to X-ray film at −70° C. and signals on the resulting fluorograms were typically quantified by densitometry or phosphorimaging. Using the total radioactivity applied to each lane of the gel and the relative signal intensity of each band in that lane, the radioactivity associated with each apoprotein species was calculated. […]

The test system of the next experiment is Rat McA hepatoma cells. As to the kind of experiment: Proteasome inhibition and apoB degradation in rat McA hepatoma cells. On the procedure:
FIG. 8 illustrates that EPA stimulates apoB degradation even when proteasomes are inhibited. Panel A: Rat McA hepatoma cells were incubated at 37° C. for 4 hr in [^35S]methionine-containing medium supplemented with either BSA (C) or EPA/BSA complexes (EPA) in the absence (EPA) or presence (EPA+LAC) of the proteasome inhibitor, lactacystin. Samples of cell lysates and conditioned media were subjected to immunoprecipitation analysis with anti-apoB antiserum, followed by SDS-PAGE and fluorography. In three separate experiments, the effect of lactacystin on EPA-induced degradation averaged less than 20%. Panel B: Rat McA hepatoma cells were incubated at 37° C. for 4 hr in [^355]methionine-containing medium supplemented with either BSA (Control) or BSA and lactacystin (LAC). After immunoprecipitation/SDS-PAGE analysis of the cell lysate and media samples, the resulting fluorograms were analyzed by phosphorimager and the recovery of total (cell+medium) apoB100 was quantified. The results shown (mean total recovery relative to control, ±SE) are based on 8 independent determinations. * indicates P<0.001, LAC vs. control.
To determine whether the proteasome mediated Ω-3 fatty acid-induced apoB degradation, rat hepatoma cells were incubated at 37° C. for 4 hr in [^35S]methionine-containing medium supplemented with either BSA or EPA/BSA complexes in the absence or presence of the proteasome inhibitor, lactacystin ([…]; purchased from the laboratory of Dr. E. J. Corey, Harvard University). Samples of cell lysates and conditioned media were subjected to immunoprecipitation analysis with anti-apoB antiserum, followed by SDS-PAGE and fluorography. To determine whether Ω-3 fatty acids targeted apoB to lysosomal degradation, a similar experiment was performed substituting ammonium chloride (40 mM) for lactacystin.

Regarding `CCCCC/C=C\C/C=C\C/C=C\C/C=C\CCCC(=O)O` [AA, arachidonic acid], the “reactive oxygen species (ROS), TBARS assay, fatty acid compared to BSA” value with rat hepatoma cells [1] was “increases”. In addition, the “AA-induced apoB100 degradation with co-treatment by the COX inhibitor aspirin” value with rat hepatoma cells [2] (AA plus aspirin) is recorded as “still induced apoB100 degradation”. In addition, in the experiment with rat hepatoma cells [2] (rat hepatoma cells, 15 to 120 minutes chase), the “apoB100 degradation induced by the fatty acid” value is listed as “stimulates the degradation of apoB”.
As to `CC(=O)OCOC(=O)CN(CC(=O)OCOC(C)=O)c1ccccc1OCCOc1ccccc1N(CC(=O)OCOC(C)=O)CC(=O)OCOC(C)=O` [BAPTA-AM], the “effect on DHA-stimulated apoB100 degradation” value in the experiment with rat hepatoma cells [2] is recorded as “no effect”.
In the case of `O=C(O)CN(CC(=O)O)c1ccccc1OCCOc1ccccc1N(CC(=O)O)CC(=O)O` [BAPTA], the “effect on DHA-stimulated apoB100 degradation” value in the experiment on rat hepatoma cells [2] is recorded as “blocked”.
For the molecule `Cc1cc(C(C)(C)C)c(O)c(C(C)(C)C)c1` [BHT, butylhydroxytoluene], in the experiment with rat hepatoma cells [2] (co-treatment with DHA, FIG. 13A and 13B), the “inhibition of DHA-stimulated apoB100 degradation” value is recorded as roughly 60%.
For the molecule `O=C(O)CN(CCOCCOCCN(CC(=O)O)CC(=O)O)CC(=O)O` [EGTA], the “effect on DHA-stimulated apoB100 degradation” value with rat hepatoma cells [2] was “blocked”.
`CC/C=C\C/C=C\C/C=C\C/C=C\C/C=C\CCCC(=O)O` [EPA, eicosapentaenoic acid]: in the experiment on rat primary hepatocytes, the “secretion of newly synthesized VLDL-ApoB48, percentage of secretion observed with BSA alone” value was 45 ± 3 percentage; the “secretion of newly synthesized VLDL-ApoB100, percentage of secretion observed with BSA alone” value is 25 ± 2 percentage; the “secretion of newly synthesized VLDL-ApoE, percentage of secretion observed with BSA alone” value was 45 ± 1 percentage.
For `CCCCCCCCCCCCCC(=O)O` [MA, myristic acid], in the experiment with rat hepatoma cells [1], the “reactive oxygen species (ROS), TBARS assay, fatty acid compared to BSA” value is reported as “does not increase”.
As to `CC(=O)Oc1ccccc1C(=O)O` [aspirin], the “effect on DHA-stimulated apoB100 degradation” value with rat hepatoma cells [2] was “no effect”.
On to `CC(=O)N[C@@H](CSC(=O)[C@]1([C@@H](O)C(C)C)NC(=O)[C@H](C)[C@@H]1O)C(=O)O` [lactacystin], for which the “inhibition of EPA-induced apoB degradation” value in the experiment on Rat McA hepatoma cells (FIG. 8 Panel A) is listed as “little if any inhibition”. The “apoB100 recovery in the absence of Ω-3 fatty acids” value in the experiment on Rat McA hepatoma cells (FIG. 8 Panel B, total (cell+medium), P<0.001 vs control) is recorded as “increased”. Further, the “effect of lactacystin on EPA-induced apoB degradation” value in the experiment on Rat McA hepatoma cells (average of three separate experiments, 4 hr) was “less than 20%”.
